Assay results taken from ChEMBL document CHEMBL1154097, “Novel 3,3'-diindolylmethane derivatives: synthesis and cytotoxicity, structural characterization in solid state” (Eur J Med Chem, 2009).
Activity calls are given as the source filed them. The rule behind the calls is not given here.

Experiments:
PC-3 = test: Cytotoxicity against human PC3 cells; assay type: functional
UO-31 = test: Cytotoxicity against human UO31 cells; assay type: functional
Malme-3M = test: Cytotoxicity against human MALME-3M cells at 10 uM; assay type: functional, cell-based
SK-MEL-2 = test: Cytotoxicity against human SK-MEL-2 cells; assay type: functional
IGROV-1 = test: Cytotoxicity against human IGROV1 cells; assay type: functional

Row | SMILES | Activity (PC-3) | Activity (UO-31) | Activity (Malme-3M) | Activity (SK-MEL-2) | Activity (IGROV-1)
1 | COc1ccc2[nH]cc(C(c3cc(F)cc(F)c3)c3c[nH]c4ccc(OC)cc34)c2c1 | 50.16% | 43.23% | Active | 62.49% | -7.1%
2 | Fc1cc(F)cc(C(c2c[nH]c3ccccc23)c2c[nH]c3ccccc23)c1 | 67.07% | 52.86% | Active | 58.84% | -6.52%
